Starred links: 1 amine or outer side, 2 acyl side, 3 side chain; linkers in the order of their positions; H or OH if unused. Positions of bridges follow the written chain, without caps; N, C: chain ends. Non-standard residues stand in square brackets, D forms with d. Residues, ends and D or L forms follow the SMILES beside them. Bip(4'-NHCO-C6H4-3-CH2COOH) = N[C@@H](Cc1ccc(-c2ccc(NC(=O)c3cccc(CC(=O)O)c3)cc2)cc1)C(=O)O; Bip(4'-NHCO-C6H4-4-CH2COOH) = N[C@@H](Cc1ccc(-c2ccc(NC(=O)c3ccc(CC(=O)O)cc3)cc2)cc1)C(=O)O; X5 = Cn1nc(C(=O)Nc2ccc(-c3ccc(C[C@H](N[*:1])C(=O)[*:2])cc3)cc2)c2ccccc21; dArg(ω-(3-HO-benzyl)) = N=C(NCCC[C@@H](N)C(=O)O)NCc1cccc(O)c1; Bip(4'-CONHMe) = CNC(=O)c1ccc(-c2ccc(C[C@H](N)C(=O)O)cc2)cc1; Bip(4'-COOH) = N[C@@H](Cc1ccc(-c2ccc(C(=O)O)cc2)cc1)C(=O)O; Bip(4'-NHAc) = CC(=O)Nc1ccc(-c2ccc(C[C@H](N)C(=O)O)cc2)cc1; Phe(3-CH2NH2) = O=C([C@H](Cc1cccc(CN[*:3])c1)N[*:1])[*:2]; Ala(morpholin-4-yl) = N[C@@H](CN1CCOCC1)C(=O)O; Bip = N[C@@H](Cc1ccc(-c2ccccc2)cc1)C(=O)O; Morpholine(3S-CO) = O=C(O)[C@@H]1COCCN1; 2Pal = N[C@@H](Cc1ccccn1)C(=O)O; Cha = N[C@@H](CC1CCCCC1)C(=O)O; Tle = CC(C)(C)[C@H](N)C(=O)O; Aze = O=C(O)[C@@H]1CCN1; Sar = CNCC(=O)O A value given as a limit tells only on which side of the number the result lay.

Chain of TNFα (P01375 77-233 limits assumed): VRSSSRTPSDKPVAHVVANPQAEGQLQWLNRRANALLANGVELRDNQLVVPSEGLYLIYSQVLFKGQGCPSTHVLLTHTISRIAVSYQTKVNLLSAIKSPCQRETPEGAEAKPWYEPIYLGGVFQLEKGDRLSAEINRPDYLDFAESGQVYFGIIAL

This test concerns the target TNFα (Homo sapiens, UniProt P01375). Put plainly: TNF-Induced HEK-Blue Assay. It is filed as cell-based. Particulars: HEK-Blue-CD40L cells, NF-kB-driven secreted alkaline phosphatase reporter; TNFα 0.5 ng/ml; 18 h; read-out: TNF induced HEK-Blue assay IC50 value.
Take `CC[C@H](C)[C@@H]1NC(=O)[C@@H](CCCNC(=N)N)NC(=O)[C@H](CC(=O)O)NC(=O)[C@@H]2CCCN2C(=O)CN(C)C(=O)[C@H](Cc2ccc(-c3ccc(NC(C)=O)cc3)cc2)NC(=O)[C@H](Cc2ccc(-c3ccccc3)cc2)NC(=O)[C@H](C(C)(C)C)NC(=O)CSC[C@@H](C(=O)NCC(N)=O)NC(=O)[C@H](CC(C)C)NC(=O)[C@H](Cc2ccc(O)cc2)NC(=O)[C@H](C(C)C)NC(=O)[C@@H]2CCCN2C1=O` [Example 267] ({CH2CO}-[Tle][Bip][Bip(4'-NHAc)][Sar]PD[dR]IPVYLCG-NH2; thioether N-13): the half-maximal inhibitory concentration (IC50) lay in the range of 50 to 200 nM.

As for `CC[C@H](C)[C@@H]1NC(=O)[C@@H](CCCNC(=N)N)NC(=O)[C@H](CC(=O)O)NC(=O)[C@H](Cc2cnc[nH]2)NC(=O)CN(C)C(=O)[C@H](Cc2ccc(-c3ccc(C(=O)NC)cc3)cc2)NC(=O)[C@H](Cc2ccc(-c3ccc(C(=O)O)cc3)cc2)NC(=O)[C@H](CC2CCCCC2)NC(=O)CSC[C@@H](C(=O)NCC(N)=O)NC(=O)[C@H](CC(C)C)NC(=O)[C@H](Cc2cnc[nH]2)NC(=O)[C@H](C(C)C)NC(=O)[C@@H]2CCCN2C1=O` [Example 331] ({CH2CO}-[Cha][Bip(4'-COOH)][Bip(4'-CONHMe)][Sar]HD[dR]IPVHLCG-NH2; thioether N-13), the IC50 is under 50 nM. For `CC[C@H](C)[C@@H]1NC(=O)CSC[C@@H](C(=O)NCC(N)=O)NC(=O)[C@H](CC(C)C)NC(=O)[C@H](Cc2ccc(O)cc2)NC(=O)[C@H](C(C)C)NC(=O)[C@@H]2CCCN2C(=O)[C@H](C(C)C)NC(=O)[C@@H](CCCNC(=N)N)NC(=O)[C@H](CC(=O)O)NC(=O)[C@H](Cc2ccc(O)cc2)NC(=O)CN(C)C(=O)[C@H](Cc2ccc(-c3ccccc3)cc2)NC(=O)[C@H](Cc2ccc(-c3ccc(C(=O)O)cc3)cc2)NC1=O` [Example 188] ({CH2CO}-I[Bip(4'-COOH)][Bip][Sar]YD[dR]VPVYLCG-NH2; thioether N-13), the IC50 was under 50 nM. In the case of `CC(C)C[C@@H]1NC(=O)[C@H](CCCNC(=N)N)NC(=O)[C@H](C(C)C)NC(=O)[C@@H]2CCCN2C(=O)[C@H](C(C)C)NC(=O)[C@@H](CCCNC(=N)NCc2cccc(O)c2)NC(=O)[C@H](CC(=O)O)NC(=O)[C@@H]2CCCN2C(=O)CN(C)C(=O)[C@H](Cc2ccc(-c3ccc(NC(=O)c4ccc(CC(=O)O)cc4)cc3)cc2)NC(=O)[C@H](Cc2ccc(-c3ccccc3)cc2)NC(=O)[C@H](CN2CCOCC2)NC(=O)CSC[C@@H](C(=O)NCC(N)=O)NC1=O` [Example 567] ({CH2CO}-[Ala(morpholin-4-yl)][Bip][Bip(4'-NHCO-C6H4-4-CH2COOH)][Sar]PD[dArg(ω-(3-HO-benzyl))]VPVRLCG-NH2; thioether N-13) it was under 50 nM. Turning to `CC(=O)Nc1ccc(-c2ccc(C[C@@H]3NC(=O)[C@H](Cc4ccc(-c5ccccc5)cc4)NC(=O)[C@H](CN4CCOCC4)NC(=O)CSC[C@@H](C(=O)NCC(N)=O)NC(=O)[C@H](CC(C)C)NC(=O)[C@H](Cc4ccc(O)cc4)NC(=O)[C@H](C(C)C)NC(=O)[C@@H]4COCCN4C(=O)[C@H](C(C)C)NC(=O)[C@@H](CCCNC(=N)N)NC(=O)[C@H](CC(=O)O)NC(=O)[C@H](Cc4ccccn4)NC(=O)CN(C)C3=O)cc2)cc1` [Example 180] ({CH2CO}-[Ala(morpholin-4-yl)][Bip][Bip(4'-NHAc)][Sar][2Pal]D[dR]V[Morpholine(3S-CO)]VYLCG-NH2; thioether N-13), the 50% inhibitory concentration (IC50) lay in the range of 50 to 200 nM.

Consider `CC[C@H](C)[C@@H]1NC(=O)[C@@H]2CCN2C(=O)[C@H]([C@@H](C)CC)NC(=O)[C@@H](CCCNC(=N)N)NC(=O)[C@H](CC(=O)O)NC(=O)[C@H](Cc2ccc(O)cc2)NC(=O)CN(C)C(=O)[C@H](Cc2ccc(-c3ccc(NC(=O)c4nn(C)c5ccccc45)cc3)cc2)NC(=O)[C@H](Cc2ccc(-c3ccccc3)cc2)NC(=O)[C@H](C(C)(C)C)NC(=O)CSC[C@@H](C(=O)NCC(N)=O)NC(=O)[C@H](CC(C)C)NC(=O)[C@H](Cc2ccc(O)cc2)NC1=O` [Example 337] ({CH2CO}-[Tle][Bip][X5][Sar]YD[dR]I[Aze]IYLCG-NH2; thioether N-13), for which the IC50 was 50 to 200 nM. The result for `CC(=O)Nc1ccc(-c2ccc(C[C@@H]3NC(=O)[C@H](Cc4ccc(-c5ccccc5)cc4)NC(=O)[C@H](CC4CCCCC4)NC(=O)CSC[C@@H](C(=O)NCC(N)=O)NC(=O)[C@H](CC(C)C)NC(=O)[C@H](Cc4cccc(CN)c4)NC(=O)[C@H](C(C)C)NC(=O)[C@@H]4CCCN4C(=O)[C@H](C(C)C)NC(=O)[C@@H](CCCNC(=N)N)NC(=O)[C@H](CC(=O)O)NC(=O)[C@H](Cc4ccc(O)cc4)NC(=O)CN(C)C3=O)cc2)cc1` [Example 283] ({CH2CO}-[Cha][Bip][Bip(4'-NHAc)][Sar]YD[dR]VPV[Phe(3-CH2NH2)]LCG-NH2; thioether N-13) reads under 50 nM; that for `CC[C@H](C)[C@@H]1NC(=O)[C@@H](CCCNC(=N)N)NC(=O)[C@H](CC(=O)O)NC(=O)[C@H](Cc2cnc[nH]2)NC(=O)CN(C)C(=O)[C@H](Cc2ccc(-c3ccc(NC(=O)c4cccc(CC(=O)O)c4)cc3)cc2)NC(=O)[C@H](Cc2ccc(-c3ccccc3)cc2)NC(=O)[C@H](C(C)(C)C)NC(=O)CSC[C@@H](C(=O)NCC(N)=O)NC(=O)[C@H](CC(C)C)NC(=O)[C@H](Cc2cnc[nH]2)NC(=O)[C@H](C(C)C)NC(=O)[C@@H]2CCCN2C1=O` [Example 496] ({CH2CO}-[Tle][Bip][Bip(4'-NHCO-C6H4-3-CH2COOH)][Sar]HD[dR]IPVHLCG-NH2; thioether N-13), under 50 nM.

For the origin of these results see patent US20250145665A1, “MACROCYCLIC PEPTIDES USEFUL AS MODULATORS OF TNF ALPHA” (Bristol-Myers Squibb Company, priority 2023, published 2025).
